From paper PMC11945486, “TAS1R2/TAS1R3 Single-Nucleotide Polymorphisms Affect Sweet Taste Receptor Activation by Sweeteners: The SWEET Project” (Nutrients, 2025)
Like-named read-outs stand apart in the source and are kept apart here. No end group written: not given here.

Molecular target: T1, human TAS1R2-WT/TAS1R3-T716M (Homo sapiens, UniProt Q7RTX0+Q8TE23, T716M)
T1 construct: expressed in transfected cells; host or cells: HEK293T stably expressing Gα16gust44
T1 sequence (Q8TE23 20-839): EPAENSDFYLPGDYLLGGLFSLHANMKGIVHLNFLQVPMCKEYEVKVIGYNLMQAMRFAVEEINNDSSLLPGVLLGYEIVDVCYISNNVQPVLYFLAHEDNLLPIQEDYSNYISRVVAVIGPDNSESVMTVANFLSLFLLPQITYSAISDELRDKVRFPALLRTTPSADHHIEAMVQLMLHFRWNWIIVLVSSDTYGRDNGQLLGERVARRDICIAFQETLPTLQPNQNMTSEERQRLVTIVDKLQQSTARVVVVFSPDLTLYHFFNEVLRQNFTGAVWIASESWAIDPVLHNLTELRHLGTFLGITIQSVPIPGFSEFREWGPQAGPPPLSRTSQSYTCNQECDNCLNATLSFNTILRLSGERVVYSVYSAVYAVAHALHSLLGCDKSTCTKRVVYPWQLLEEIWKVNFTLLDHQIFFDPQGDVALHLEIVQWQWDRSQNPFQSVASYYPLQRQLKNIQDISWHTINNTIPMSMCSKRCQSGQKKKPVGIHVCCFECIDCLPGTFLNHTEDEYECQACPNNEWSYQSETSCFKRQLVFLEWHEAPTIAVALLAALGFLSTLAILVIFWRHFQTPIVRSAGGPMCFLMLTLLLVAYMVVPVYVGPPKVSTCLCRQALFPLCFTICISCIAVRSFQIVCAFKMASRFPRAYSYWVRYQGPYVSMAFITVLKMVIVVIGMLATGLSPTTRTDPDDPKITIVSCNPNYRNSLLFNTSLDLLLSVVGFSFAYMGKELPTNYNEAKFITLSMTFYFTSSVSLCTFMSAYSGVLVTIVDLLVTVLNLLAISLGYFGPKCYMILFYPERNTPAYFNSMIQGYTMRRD
T1 sequence (Q7RTX0 21-852 T716M): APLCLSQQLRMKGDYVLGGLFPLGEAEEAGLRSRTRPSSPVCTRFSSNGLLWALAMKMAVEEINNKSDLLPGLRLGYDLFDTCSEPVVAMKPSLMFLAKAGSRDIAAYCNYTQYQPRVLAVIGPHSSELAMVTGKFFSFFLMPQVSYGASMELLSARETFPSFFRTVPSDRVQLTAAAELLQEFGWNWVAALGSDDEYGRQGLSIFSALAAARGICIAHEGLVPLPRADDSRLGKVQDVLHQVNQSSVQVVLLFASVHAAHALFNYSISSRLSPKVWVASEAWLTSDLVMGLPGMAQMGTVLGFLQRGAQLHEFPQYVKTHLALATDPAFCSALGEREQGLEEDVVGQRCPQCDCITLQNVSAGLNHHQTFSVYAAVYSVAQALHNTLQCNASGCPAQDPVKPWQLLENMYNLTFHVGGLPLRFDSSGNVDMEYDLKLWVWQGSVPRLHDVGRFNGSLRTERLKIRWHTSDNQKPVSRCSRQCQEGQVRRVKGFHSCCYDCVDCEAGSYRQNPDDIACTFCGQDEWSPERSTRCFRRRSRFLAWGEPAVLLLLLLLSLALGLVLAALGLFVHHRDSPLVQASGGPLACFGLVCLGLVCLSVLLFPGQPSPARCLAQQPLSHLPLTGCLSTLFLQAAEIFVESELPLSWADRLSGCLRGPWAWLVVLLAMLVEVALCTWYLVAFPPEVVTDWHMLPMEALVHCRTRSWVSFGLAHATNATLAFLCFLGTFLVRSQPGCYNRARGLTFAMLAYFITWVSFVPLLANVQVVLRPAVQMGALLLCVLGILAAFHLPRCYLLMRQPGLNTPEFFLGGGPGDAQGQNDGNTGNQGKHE
Assay: Calcium mobilisation assay, TAS1R2-WT with TAS1R3 variant T716M
Assay type: cell-based
Details: for Max ΔF/F0: maximal signal amplitude
Excerpt: The coding sequences for TAS1R2 and TAS1R3 were commercially synthesised, and the human codon was optimised for expression in human cells. The coding sequences of human TAS1R2 and TAS1R3 were subcloned and inserted into the mammalian expression vectors pcDNA6/myc-HisA and pcDNA4/myc-HisA (Invitrogen; Thermo Fisher Scientific; Illkirch, France) between the EcoRI and NotI restriction sites, generating the plasmids pcDNA6-TAS1R2 and pcDNA4-TAS1R3, respectively. To increase protein expression in mammalian cells, an upstream start codon was used, which was a sequence called MAX, corresponding to the QBI SP163 element also described in pcDNA4-HisMax (Invitrogen; Thermo Fisher Scientific; Illkirch, France). To measure the expression level of the receptor by immunohistochemistry, we used the FLAG sequence ([…]) in the C-terminal position, which encodes the FLAG tag epitope. SNP variants of TAS1R2 and TAS1R3 were constructed based on […], respectively, using site-directed mutagenesis (Genewiz; Leipzig, Germany).
The HEK293T cells were kindly provided by Jay P. Slack (Givaudan Flavors Corporation; Cincinnati, OH, USA). HEK293T cells stably transfected with Gα16gust44 [43, 67] were seeded in poly-D-lysine-coated clear-bottom black 96-well plates (0.35 × 10^5 cells/well) in high-glucose DMEM supplemented with 2 mM GlutaMAX, 10% dialysed foetal bovine serum with penicillin/streptomycin and G418 (400 μg/mL) at 37 °C and 6.3% CO2 in a humidified atmosphere as previously reported. […] As a negative control, HEK293T cells were mock-transfected with the empty expression vector. After a further 24 h of incubation, the HEK293T cells were washed with C1 buffer (130 mM NaCl, 5 mM KCl, 10 mM HEPES pH 7.4 and 2 mM CaCl2). The 96-well plates containing the cells were then stimulated with sweet-tasting compounds. […] Different concentration ranges were tested depending on the sweet compound injected. The Ca^2+ changes were expressed as fractional changes in fluorescent light intensity: ΔF/F = (F − F0)/F0, where F was the fluorescent light intensity at each point, and F0 was the value of emitted fluorescent light prior to stimulus application. To calculate dose–response relationships, the changes in fluorescence upon stimulus application were averaged, mock-subtracted and baseline-corrected. The dose–response data obtained were adjusted using a 4-parameter logistic equation. The half-maximal effective concentrations (EC50 values) and maximal signal amplitudes were calculated using SigmaPlot software (version 15.0) (Systat Software; San Jose, CA, USA).
For in vitro calcium mobilisation assay performed on hTAS1R2-SNPs, hTAS1R3-SNPs and mTAS1R3-I60T, 6 to 7 concentrations were tested for each sweet compound, plus buffer alone. All concentration–receptor combinations were measured in duplicate, and each experiment was repeated at least 4 times (8 wells/concentration). Results were expressed for each concentration as ΔF/F mean ± SEM and represented as dose–response curves.

R1 = Variant EC50/WT EC50	Max ΔF/F0	EC50 (read-out: EC50) [µM]	EC50 (brazzein) [mg/L]	Compound
1.2	0.30 ± 0.01	739 ± 72	–	CC1=CC(=O)NS(=O)(=O)O1 [Acesulfame K, acesulfame K]
1.1	0.84 ± 0.09	55.4 ± 18.4	–	COc1ccc(CCC(=O)c2c(O)cc(O[C@@H]3O[C@H](CO)[C@@H](O)[C@H](O)[C@H]3O[C@@H]3O[C@@H](C)[C@H](O)[C@@H](O)[C@H]3O)cc2O)cc1O [NHDC, neohesperidin dihydrochalcone]
1.1	0.54 ± 0.01	1.3 ± 0.06	–	COC(=O)[C@H](Cc1ccccc1)NC(=O)[C@H](CC(=O)O)NCCC(C)(C)C [Neotame]
1.6	1.73 ± 0.33	21.6 ± 11.4	–	C=C(C)[C@@H]1CC=C(/C=N/O)CC1 [Perillartine, perillartine]
0.8	1.10 ± 0.06	30.7 ± 4	–	C=C1C[C@@]23CC[C@H]4[C@@](C)(CCC[C@@]4(C)C(=O)O[C@@H]4O[C@H](CO)[C@@H](O)[C@H](O[C@@H]5O[C@H](CO)[C@@H](O)[C@H](O)[C@H]5O)[C@H]4O[C@@H]4O[C@H](CO)[C@@H](O)[C@H](O)[C@H]4O)[C@@H]2CC[C@]1(O[C@@H]1O[C@H](CO)[C@@H](O)[C@H](O[C@@H]2O[C@H](CO)[C@@H](O)[C@H](O)[C@H]2O)[C@H]1O[C@@H]1O[C@H](CO)[C@@H](O)[C@H](O)[C@H]1O)C3 [Rebaudioside M, rebaudioside M]
1.5	0.47 ± 0.02	161 ± 14	–	OC[C@H]1O[C@H](O[C@]2(CCl)O[C@H](CCl)[C@@H](O)[C@@H]2O)[C@H](O)[C@@H](O)[C@H]1Cl [Sucralose]
1.0	0.94 ± 0.04	–	112.6 ± 13.6	brazzein (QDKCKKVYENYPVSKCQLANQCNYDCKLDKHARSGECFYDEKRNLQCICDYCEY; ends and bridges not checked; cysteine pairing not given here; UniProt P56552 1-54, looked up) [sweet-tasting protein obtained by recombinant production using the yeast Pichia pastoris]
1.0	0.76 ± 0.04	10 ± 0.5	–	thaumatin

Compound	R1 = Variant EC50/WT EC50	Max ΔF/F0	EC50 (read-out: EC50) [µM]	EC50 (brazzein) [mg/L]
O=S(=O)(O)NC1CCCCC1 [Cyclamate, cyclamate]	–	–	1860 ± 45	–
C[C@H](CC[C@@H](O[C@@H]1O[C@H](CO[C@@H]2O[C@H](CO)[C@@H](O)[C@H](O)[C@H]2O)[C@@H](O)[C@H](O)[C@H]1O[C@@H]1O[C@H](CO)[C@@H](O)[C@H](O)[C@H]1O)C(C)(C)O)[C@H]1CC[C@@]2(C)[C@@H]3CC=C4[C@@H](CC[C@H](O[C@@H]5O[C@H](CO[C@@H]6O[C@H](CO)[C@@H](O)[C@H](O)[C@H]6O)[C@@H](O)[C@H](O)[C@H]5O)C4(C)C)[C@]3(C)[C@H](O)C[C@]12C [Mogroside V, mogroside V]	1.2	1.01 ± 0.01	36.4 ± 1	–
